Assay results taken from PMC3914206.

Assays:
Type in all cases: binding
Settings in all cases: Compound Concentration 10 µM
panel of 442 kinases [1] = biological target: T1, panel of 442 kinases (Homo sapiens, UniProt Q12851)
T1 construct: purchased KINOMEscan
T1 sequence (Q12851 1-820): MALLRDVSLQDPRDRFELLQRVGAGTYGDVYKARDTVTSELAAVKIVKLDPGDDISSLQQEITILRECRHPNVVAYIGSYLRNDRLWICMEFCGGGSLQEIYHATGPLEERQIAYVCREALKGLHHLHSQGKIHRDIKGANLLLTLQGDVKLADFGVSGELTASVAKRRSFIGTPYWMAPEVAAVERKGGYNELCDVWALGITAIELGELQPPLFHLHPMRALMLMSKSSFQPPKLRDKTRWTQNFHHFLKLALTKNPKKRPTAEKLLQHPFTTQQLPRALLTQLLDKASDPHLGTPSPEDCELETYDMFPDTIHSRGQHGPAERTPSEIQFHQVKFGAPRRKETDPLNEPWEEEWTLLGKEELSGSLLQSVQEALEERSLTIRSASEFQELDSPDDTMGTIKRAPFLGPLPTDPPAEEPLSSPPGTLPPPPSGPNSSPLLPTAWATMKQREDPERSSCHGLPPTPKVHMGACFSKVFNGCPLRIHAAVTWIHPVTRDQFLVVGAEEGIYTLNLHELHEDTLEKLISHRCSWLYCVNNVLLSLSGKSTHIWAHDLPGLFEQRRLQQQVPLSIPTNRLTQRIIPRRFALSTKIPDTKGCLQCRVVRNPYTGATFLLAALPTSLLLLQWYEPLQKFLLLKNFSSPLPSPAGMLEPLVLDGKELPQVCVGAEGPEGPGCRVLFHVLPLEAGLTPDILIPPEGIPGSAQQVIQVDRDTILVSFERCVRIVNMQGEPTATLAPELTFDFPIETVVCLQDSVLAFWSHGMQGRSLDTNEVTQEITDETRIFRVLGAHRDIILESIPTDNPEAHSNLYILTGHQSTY
Description: (§1) We assessed the selectivity of members of this scaffold using the KINOMEscan methodology across a near comprehensive panel of 442 kinases [[18,27]].

panel of 442 kinases [2] = biological target: T2, panel of 442 kinases (Homo sapiens, UniProt P54756)
T2 construct: purchased KINOMEscan
Description: as §1

panel of 442 kinases [3] = biological target: T3, panel of 442 kinases (Homo sapiens, UniProt P24941)
T3 construct: purchased KINOMEscan
Description: as §1

T2 sequence (P54756 25-1037): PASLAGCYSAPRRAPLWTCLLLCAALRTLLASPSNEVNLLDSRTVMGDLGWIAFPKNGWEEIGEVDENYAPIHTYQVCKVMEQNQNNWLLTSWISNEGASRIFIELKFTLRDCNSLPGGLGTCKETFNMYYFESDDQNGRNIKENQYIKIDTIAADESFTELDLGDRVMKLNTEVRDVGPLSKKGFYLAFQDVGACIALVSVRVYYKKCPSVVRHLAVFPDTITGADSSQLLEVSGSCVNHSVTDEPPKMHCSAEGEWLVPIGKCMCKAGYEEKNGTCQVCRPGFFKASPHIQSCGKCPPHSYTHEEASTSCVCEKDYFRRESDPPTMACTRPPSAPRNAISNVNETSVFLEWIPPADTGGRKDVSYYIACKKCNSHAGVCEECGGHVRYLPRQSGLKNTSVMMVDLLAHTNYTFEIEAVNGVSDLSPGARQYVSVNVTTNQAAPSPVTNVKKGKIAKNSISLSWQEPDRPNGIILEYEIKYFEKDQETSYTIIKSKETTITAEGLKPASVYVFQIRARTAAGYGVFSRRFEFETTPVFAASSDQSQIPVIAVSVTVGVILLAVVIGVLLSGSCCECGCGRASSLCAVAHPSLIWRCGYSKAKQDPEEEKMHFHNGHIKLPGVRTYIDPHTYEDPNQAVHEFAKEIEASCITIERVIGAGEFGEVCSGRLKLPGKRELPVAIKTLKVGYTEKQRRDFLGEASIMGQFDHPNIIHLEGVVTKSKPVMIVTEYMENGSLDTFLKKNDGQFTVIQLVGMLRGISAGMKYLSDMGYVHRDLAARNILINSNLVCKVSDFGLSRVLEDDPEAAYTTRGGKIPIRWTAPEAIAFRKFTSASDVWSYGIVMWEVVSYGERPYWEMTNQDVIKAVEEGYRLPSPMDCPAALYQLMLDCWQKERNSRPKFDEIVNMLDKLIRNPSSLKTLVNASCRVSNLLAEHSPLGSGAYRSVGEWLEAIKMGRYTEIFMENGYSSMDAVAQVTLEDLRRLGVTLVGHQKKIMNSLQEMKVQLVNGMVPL

| Structure (SMILES) | KINOMEscan: MAP4K2 (panel of 442 kinases [1]) | KINOMEscan: EPHA5 (panel of 442 kinases [2]) | KINOMEscan: CDK2 (panel of 442 kinases [3]) |
| --- | --- | --- | --- |
| COc1cc(C(=O)N2CCC(N3CCN(C)CC3)CC2)ccc1Nc1ncc2c(n1)N(C)c1ccccc1C(=O)N2C [15 (LRRK2-IN-1)] | 100 | 95 | 100 |
| CCOc1cc(C(=O)N2CCC(N3CCN(C)CC3)CC2)ccc1Nc1ncc2c(n1)N(C1CCCC1)c1ccccc1C(=O)N2C [Compound 26] | 92 | 100 | 100 |
| COc1cc(C(=O)N2CCC(N3CCN(C)CC3)CC2)ccc1Nc1ncc2c(n1)N1CCc3cccc(c31)C(=O)N2C [Compound 24] |  | 94 | 95 |
| COc1cc(C(=O)N2CCC(N3CCN(C)CC3)CC2)ccc1Nc1ncc2c(n1)N(C1CCCC1)c1ccccc1C(=O)N2C [Compound 25, 11-cyclopentyl-2-((2-methoxy-4-(4-(4-methylpiperazin-1-yl)piperidine-1-carbonyl)phenyl)amino)-5-methyl-5H-benzo[e]pyrimido[5,4-b][1,4]diazepin-6(11H)-one] | 100 | 99 | 96 |
